Where two headings read alike, the source gives them in different places.
Key:
[1] = Wall et al., J. Nat. Prod. 1989; cited from earlier work
[2] = target: T1, androgen receptor (Homo sapiens, UniProt P10275); experiment: Co-transfection androgen antagonist assay (CV-1 cells, pRShAR, MTV-LUC reporter; AR-wt); format: cell-based; conditions: for IC50: read-out: Potency (IC50, concentration required to reduce the maximal response by 50%)
T1 construct: expressed in transfected cells; host or cells: CV-1 (monkey kidney fibroblast) cells, plasmid pRShAR, with reporter plasmid MTV-LUC
T1 sequence (P10275 1-920): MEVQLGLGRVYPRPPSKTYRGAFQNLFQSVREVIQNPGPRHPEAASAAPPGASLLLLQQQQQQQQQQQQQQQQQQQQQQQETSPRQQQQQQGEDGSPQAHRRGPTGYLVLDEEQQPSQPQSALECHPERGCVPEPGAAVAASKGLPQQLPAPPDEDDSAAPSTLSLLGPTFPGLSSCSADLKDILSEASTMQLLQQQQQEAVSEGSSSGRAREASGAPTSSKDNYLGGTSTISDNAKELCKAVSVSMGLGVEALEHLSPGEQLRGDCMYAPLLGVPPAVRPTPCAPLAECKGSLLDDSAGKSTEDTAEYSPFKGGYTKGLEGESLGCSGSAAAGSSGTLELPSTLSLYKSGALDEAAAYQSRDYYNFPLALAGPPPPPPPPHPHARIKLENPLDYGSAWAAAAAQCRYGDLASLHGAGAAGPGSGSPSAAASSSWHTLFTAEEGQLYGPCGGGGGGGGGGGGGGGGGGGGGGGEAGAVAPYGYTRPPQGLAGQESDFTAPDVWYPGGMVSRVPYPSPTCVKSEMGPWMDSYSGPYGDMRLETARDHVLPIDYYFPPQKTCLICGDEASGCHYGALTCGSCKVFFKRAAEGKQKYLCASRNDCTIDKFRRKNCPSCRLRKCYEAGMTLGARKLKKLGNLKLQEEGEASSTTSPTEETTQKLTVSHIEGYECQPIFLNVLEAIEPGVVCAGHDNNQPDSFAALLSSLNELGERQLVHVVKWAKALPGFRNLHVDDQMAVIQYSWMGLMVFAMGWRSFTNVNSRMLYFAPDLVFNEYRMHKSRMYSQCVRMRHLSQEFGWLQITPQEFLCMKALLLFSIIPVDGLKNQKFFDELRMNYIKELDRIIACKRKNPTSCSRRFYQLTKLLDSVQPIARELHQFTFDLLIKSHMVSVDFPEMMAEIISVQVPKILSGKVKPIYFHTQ
Excerpt: The co-transfection assay provides a method for identifying functional ligands (either agonists which mimic, or antagonists which inhibit, the effect of hormones), and quantifying their activity for ligand-responsive receptor proteins. In this regard, the co-transfection assay mimics an in vivo system in the laboratory. Importantly, activity in the co-transfection assay correlates very well with known in vivo activity, such that the co-transfection assay functions as a quantitative predicator of a tested compounds in vivo pharmacology. See, e.g., T. Berger et al. 41 J. Steroid Biochem. Molec.
(§1) In the co-transfection assay, a cloned gene for an intracellular receptor (e.g., androgen receptor) is introduced by transfection (a procedure to induce cells to take up foreign genes) into a background cell substantially devoid of endogenous intracellular receptors. This introduced gene directs the recipient cells to make the intracellular receptor protein. A second gene is also introduced (co-transfected) into the same cells in conjunction with the intracellular receptor gene. This second gene functions as a reporter for the transcription-modulating activity of the target intracellular receptor. Thus, the reporter acts as a surrogate for the products normally expressed by a gene under control of the target receptor and its natural hormone. A preferred reporter gene is one which expresses the firefly enzyme luciferase.
(§2) The co-transfection assay can detect small molecule agonists or antagonists of target intracellular receptors. Exposing the cells to an agonist ligand increases reporter activity in the transfected cells. This activity can be conveniently measured, e.g., by increasing luciferase production, which reflects ligand-dependent, intracellular receptor-mediated increases in reporter transcription. To detect antagonists, the co-transfection assay is carried out in the presence of a constant concentration of an agonist (e.g., for androgen receptor, dihydrotestosterone) known to induce a defined reporter signal. Increasing concentrations of a test antagonist will decrease the reporter signal (e.g., luciferase production). The co-transfection assay is therefore useful to detect both agonists and antagonists of specific intracellular receptors. It determines not only whether a compound interacts with a particular intracellular receptor, but whether this interaction mimics (agonizes) or blocks (antagonizes) the effects of the natural regulatory molecules on target gene expression, as well as the specificity and strength of this interaction.
Co-transfected cells are exposed to a medium to which is added the potential ligand (compound) that is being evaluated. If the candidate compound diffuses into the cell, binds to the receptor, and the resulting receptor complex functions as an agonist, it will subsequently bind to the co-transfected reporter gene and initiate transcription. Typically, the reporter gene is one that expresses luciferase, which is capable of catalyzing a light-emitting reaction with its substrate luciferin. Thus, after cell lysis and the introduction of luciferin, the amount of light produced relative to the concentration of candidate compound used in the assay provides a measure of the potency and efficacy of the compound tested. Antagonist activity is evaluated by adding the candidate ligand and a known agonist to the co-transfected cells. […]

[3] = tested on: progesterone receptor (PR-TI); experiment: Antagonist activity on progesterone receptor, CV-1 cells cotransfected with pRShPR-B altered at Tau-1 (PR-TI); format: cell-based, human; conditions: Table 2, CV-1 cells PR-TI; for Efficacy, PR-TI (% maximal response): comparable to that found with RU-486; for IC50: read-out: Potency, PR-TI (IC50)
Excerpt: as §1, §2
Co-transfected cells are exposed to a medium to which is added the potential ligand (compound) that is being evaluated. If the candidate compound diffuses into the cell, binds to the receptor, and the resulting receptor complex functions as an agonist, it will subsequently bind to the co-transfected reporter gene and initiate transcription. Typically, the reporter gene is one that expresses luciferase, which is capable of catalyzing a light-emitting reaction with its substrate luciferin. Thus, after cell lysis and the introduction of luciferin, the amount of light produced relative to the concentration of candidate compound used in the assay provides a measure of the potency and efficacy of the compound tested. Antagonist activity is evaluated by adding the candidate ligand and a known agonist to the co-transfected cells.
The specific activity of Compounds A-J was compared relative to their antagonist activity on the human progesterone receptor (PR) utilizing CV-1 cells cotransfected with plasmid pRShPR-B, as altered at the Tau-1 location (e.g., PR-TI)[specifically, hPR-B was excised from the vector pGEM3Z (69 Cell 703 (1992)); the Tau-1 fragment of the gluccocorticoid receptor was inserted into hPR-B at the unique HincII site in the N-terminal region; a Bst EII to BST bI fragment spanning the Tau-1 insertion was then used to replace the corresponding region in pRShPR-B]. […] Potency or IC50 is as reported for AR-wt transfected CV-1 cells.

[4] = CV-1, Table 1, androgen antagonists, relative to 2-Hydroxy-flutamide, read-out: Efficacy (% maximal response relative to 2-Hydroxy-flutamide)
[5] = Table 2, CV-1 cells AR-wt, read-out: Efficacy, AR-wt

4-isocymobarbatol
antimutagenic activity [1]: highly active antimutagens

CC1(C)[C@@H](Br)CC[C@@]2(C)Oc3cc(Br)c(O)cc3C[C@@H]12 [cymobarbatol]
antimutagenic activity [1]: highly active antimutagens

C=C1C=CCC(C)(C)C1Cc1cccc([N+](=O)[O-])c1 (stereo not drawn) [Compound A, 1-Methylidene-6-(3'-nitrophenyl)methyl-5,5-dimethylcyclohex-2-ene]
Emax [2, 4]: 69% | IC50 ([2]; Table 1, androgen antagonists): 0.066 µM | Emax [2, 5]: 69% | Efficacy, PR-TI (% maximal response) [3]: 45% | IC50 [3]: 3.8 µM

C=C1CCCC(C)(C)C1Cc1ccccc1O (stereo not drawn) [D]
Emax [2, 4]: 92% | IC50 ([2]; Table 1, androgen antagonists): 0.22 µM | Emax [2, 5]: 92% | Efficacy, PR-TI (% maximal response) [3]: 73% | IC50 [3]: 3.5 µM

Source: US5677336A, “Non-steroid androgen receptor antagonist compounds and methods” (Ligand Pharmaceuticals Incorporated, priority 1993, dated 1997)
